Assay results: patent US9233136B2, “4-amino-4-oxobutanoyl peptides as inhibitors of viral replication” (Achillion Pharmaceuticals, Inc., priority 2006, dated 2016)

Tested on: Hepatitis C replicon in Huh-7 cells
Assay: HCV replicon replication assay (NPT ELISA)
Type: cell-based
Conditions: Hepatitis C virus, Huh-7, 72 h
Procedure: Compounds claimed herein are tested for the ability to inhibit viral replication of the Hepatitis C replicon in cultured cells in which the HCV replicon construct has been incorporated. The HCV replicon system was described by Bartenschlager, et. al (Science, 285, pp. 110-113 (1999)). The replicon system is predictive of in vivo anti-HCV activity; compounds that are active in humans uniformly evidence activity in the replicon assay.
In this assay HCV replicon containing cells are treated with different concentrations of the test compound to ascertain the ability of the test compound to suppress replication of the HCV replicon. As a positive control, HCV replicon-containing cells are treated with different concentrations of interferon alpha, a known inhibitor of HCV replication. The replicon assay system includes Neomycin Phosphotransferase (NPT) as a component of the replicon itself in order to detect the transcription of replicon gene products in the host cell. Cells in which the HCV replicon is actively replicating have high levels of NPT; the level of NPT is proportional to HCV replication. […] The NPT level of each sample is measured using a captured ELISA.
A protocol for testing compounds for the ability to inhibit viral replication of the Hepatitis C replicon cultured cells in which the replicon construct has been incorporated, follows.
The HCV replicon contains, 5′-3′, the HCV-IRES, the neomycin phosphotransferase (neo) gene, the IRES of encephalomyocarditis virus, which directs translation of HCV sequences NS3 to NS5B, and the 3′-NTR. The sequence of the HCV replicon has been deposited in GenBank (Accession no. AJ242652).
The replicon is transfected into Huh-7 cells using standard methods such as electroporation.
The cells are then seeded onto 96-well plates at a density of 6000-7500 cells/100 microliters/well (6-7.5×10^5 cells/10 ml/plate). The plates are then incubated at 37° C. in a 5% CO2 incubator.
HCV replicon-containing cells are rinsed with once PBS once; 2 mls of trypsin are then added. Cells are incubated at 37° C. in a 5% CO2 incubator for 3-5 minutes. 10 mls of complete medium is added to stop the reaction. Cells are blown gently, put into a 15 ml tube, and spun at 1200 rpm for four minutes. The trypsin/medium solution is removed and 5 mls of medium (500 ml DMEM (high glucose)) from BRL catalog #12430-054; 50 mls 10% FBS, 5% Geneticin G418 (50 mg/ml, BRL catalog #10131-035), 5 ml MEM non-essential amino acids (100×BRL #11140-050) and 5 ml pen-strep (BRL #15140-148) is added. The cells and media are mixed carefully
Cells are plated with screening medium (500 ml DMEM (BRL #21063-029), 50 ml FBS (BRL #10082-147) and 5 ml MEM non-essential amino acid (BRL #11140-050) at 6000-7500 fcells/100 μl/well of 96 well plate (6-7.5×10^5 cells/10 ml/plate). Plates are placed into 37° C. 5% CO2 incubator overnight.
The following morning, drugs (test compounds or interferon alpha) are diluted in 96 well U bottom plates with media or DMSO/media, depending on the final concentration chosen for screening. Generally for 6 concentrations of each test compounds ranging from 10 micromolar to 0.03 micromolar are applied. 100 μl of the test compound dilution is placed in wells of the 96 well plate containing the HCV replicon cells. Media without drug is added to some wells as a negative controls. DMSO is known to affect cell growth. Therefore, if drugs diluted in DMSO are used, all wells, including negative control (media only) and positive control (interferon alpha) wells, must contain the same concentration of DMSO, for single dose screening. The plates are incubated at 37° C. in a humidified 5% CO2 environment for three days.
On day four, the NTPII assay is quantitated. The medium is poured from the plates and the plates are washed once in 200 μl of PBS. The PBS is then decanted and the plates tapped in a paper towel to remove any remaining PBS. […]

SMILES: C=CC1CC1(NC(=O)[C@@H]1C[C@@H](Oc2cc(-c3ccccc3)nc3cc(OC)ccc23)CN1C(=O)[C@@H](CC(=O)N1CCC(CNC(=O)OC(C)(C)C)CC1)C(C)(C)C)C(=O)O (stereo partly drawn) [Compound 46, 1-((2S,4R)-1-((S)-4-(4-((tert-butoxycarbonylamino)methyl)piperidin-1-yl)-2-tert-butyl-4-oxobutanoyl)-4-(7-methoxy-2-phenylquinolin-4-yloxy)pyrrolidine-2-carboxamido)-2-vinylcyclopropanecarboxylic acid]
- EC50: > 10 µM

SMILES: C=CC1CC1(NC(=O)[C@@H]1C[C@@H](Oc2cc(-c3ccccc3)nc3cc(OC)ccc23)CN1C(=O)[C@@H](CC(=O)N1CCCCC1)C(C)(C)C)C(=O)NS(=O)(=O)C1CC1 (stereo partly drawn) [Compound 49, (2S,4R)-1-((S)-2-tert-butyl-4-oxo-4-(piperidin-1-yl)butanoyl)-N-(1-(cyclopropylsulfonylcarbamoyl)-2-vinylcyclopropyl)-4-(7-methoxy-2-phenylquinolin-4-yloxy)pyrrolidine-2-carboxamide]
- EC50: < 0.1 µM

SMILES: C=CC1CC1(NC(=O)[C@@H]1C[C@@H](Oc2cc(-c3ccccc3)nc3cc(OC)ccc23)CN1C(=O)[C@@H](CC(=O)N1CCc2ccccc2C1)C(C)(C)C)C(=O)OCC (stereo partly drawn) [Compound 51, ethyl 1-((2S,4R)-1-((S)-2-tert-butyl-4-(3,4-dihydroisoquinolin-2(1H)-yl)-4-oxobutanoyl)-4-(7-methoxy-2-phenylquinolin-4-yloxy)pyrrolidine-2-carboxamido)-2-vinylcyclopropanecarboxylate]
- EC50: > 10 µM

SMILES: COc1cc(O[C@@H]2C[C@H]3C(=O)N[C@]4(C(=O)O)C[C@H]4/C=C\CCCCC[C@H](CC(=O)N4CCCCC4)C(=O)N3C2)c2ccc(-c3ccccc3)nc2c1 [Compound 52, (2R,6R,13aS,14aR,16aS,Z)-2-(7-methoxy-2-phenylquinolin-4-yloxy)-5,16-dioxo-6-(2-oxo-2-(piperidin-1-yl)ethyl)-1,2,3,5,6,7,8,9,10,11,13a,14,14a,15,16,16a-hexahydrocyclopropa[e]pyrrolo[1,2-a] [1,4]diazacyclopentadecine-14a-carboxylic acid]
- EC50: > 10 µM

SMILES: C=CC1CC1(NC(=O)[C@@H]1C[C@@H](Oc2cc(-c3ccccc3)nc3cc(OC)ccc23)CN1C(=O)[C@@H](CC(=O)N1CCCc2ccccc21)C(C)(C)C)C(=O)O (stereo partly drawn) [Compound 56, 1-((2S,4R)-1-((S)-2-tert-butyl-4-(3,4-dihydroquinolin-1(2H)-yl)-4-oxobutanoyl)-4-(7-methoxy-2-phenylquinolin-4-yloxy)pyrrolidine-2-carboxamido)-2-vinylcyclopropanecarboxylic acid]
- EC50: 1 to 10 µM

SMILES: C=CC1CC1(NC(=O)[C@@H]1C[C@@H](Oc2cc(-c3ccccc3)nc3cc(OC)ccc23)CN1C(=O)[C@@H](CC(=O)N1CCc2ccccc2C1)C(C)(C)C)C(=O)O (stereo partly drawn) [Compound 57, 1-((2S,4R)-1-((S)-2-tert-butyl-4-(3,4-dihydroisoquinolin-2(1H)-yl)-4-oxobutanoyl)-4-(7-methoxy-2-phenylquinolin-4-yloxy)pyrrolidine-2-carboxamido)-2-vinylcyclopropanecarboxylic acid]
- EC50: > 10 µM

SMILES: COc1ccc2c(O[C@@H]3C[C@H]4C(=O)N[C@]5(C(=O)NS(=O)(=O)C6CC6)C[C@H]5/C=C\CCCCC[C@H](CC(=O)N5CCCCC5)C(=O)N4C3)cc(-c3ccccc3)nc2c1 [Compound 58, (2R,6R,13aS,14aR,16aS,Z)-N-(cyclopropylsulfonyl)-2-(7-methoxy-2-phenylquinolin-4-yloxy)-5,16-dioxo-6-(2-oxo-2-(piperidin-1-yl)ethyl)-1,2,3,5,6,7,8,9,10,11,13a,14,14a,15,16,16a-hexadecahydrocyclopropa[e]pyrrolo[1,2-a] [1,4]diazacyclopentadecine-14a-carboxamide]
- EC50: < 0.1 µM

SMILES: COc1ccc2c(O[C@@H]3C[C@H]4C(=O)N[C@@]5(C(=O)NS(=O)(=O)C6CC6)C[C@@H]5/C=C\CCCCC[C@H](CC(=O)N5CCCCC5)C(=O)N4C3)cc(-c3ccccc3)nc2c1 [Compound 59, (2R,6R,13aR,14aS,16aS,Z)-N-(cyclopropylsulfonyl)-2-(7-methoxy-2-phenylquinolin-4-yloxy)-5,16-dioxo-6-(2-oxo-2-(piperidin-1-yl)ethyl)-1,2,3,5,6,7,8,9,10,11,13a,14,14a,15,16,16a-hexadecahydrocyclopropa[e]pyrrolo[1,2-a] [1,4]diazacyclopentadecine-14a-carboxamide]
- EC50: < 0.1 µM

SMILES: C=C[C@@H]1C[C@]1(NC(=O)[C@@H]1C[C@@H](Oc2cc(-c3ccccc3)nc3cc(OC)ccc23)CN1C(=O)[C@@H](CC(=O)N1CCCCC1)C(C)(C)C)C(=O)NS(=O)(=O)C1CC1 [Compound 60, (2S,4R)-1-((S)-2-tert-butyl-4-oxo-4-(piperidin-1-yl)butanoyl)-N-((1R,2S)-1-(cyclopropylsulfonylcarbamoyl)-2-vinylcyclopropyl)-4-(7-methoxy-2-phenylquinolin-4-yloxy)pyrrolidine-2-carboxamide]
- EC50: < 0.1 µM
